Experimental findings from patent publication US20150246074A1, “METHODS OF A[…] TOLERANCE” (The Board of Trustees of the University of Illinois, priority 2014, published 2015) are described below.

Experiment [1] deals with Sprague-Dawley rats. In words: Withdrawal thresholds to thermal stimulation (plantar test) in rats, MSC transplantation and daily morphine. Particulars: control group, Day 17 and thereafter, daily morphine, p<0.05. It counts as in vivo, rat. How it is done:
(§1) Animal care and use. The experimental protocols were approved by the Institutional Animal Care and Use Committee of Cleveland Clinic (IACUC #: 2010-0460). Experiments were performed on 24 male Sprague-Dawley rats (250-300 g), purchased from Harlan Laboratories (Indianapolis, Ind.). The animals were housed in group cages (2 per cage), allowed free access to food and water, and maintained on a 12/12 hour light/dark cycle.
(§2) Experimental design. Animals were habituated daily to the experimental environment for 1 week before testing. Pain sensitivity to mechanical or thermal stimuli applied to the hindpaws was determined by the thresholds of withdrawal of the hindlimbs from the stimuli. […] The effects of MSC transplantation or PBS injection on morphine-induced tolerance were evaluated every other day. […]
(§3) Stem cell transplantation. […] Immediately before transplantation, the cells were gently dissociated with 0.25% Trypsin, pelleted by centrifugation, counted by trypan blue exclusion, and suspended in 50 μl of PBS. […]
(§4) Behavioral tests. […] Withdrawal thresholds were quantified as the mechanical pressure in grams applied to the hindpaws through calibrated filaments (von Frey filaments) or the time interval in seconds between the activation of an infrared thermal stimulation and the withdrawal of the limb. […]

Experiment [2] relates to Sprague-Dawley rats. Briefly: Withdrawal thresholds to mechanical stimulation (von Frey) in rats, MSC transplantation and daily morphine. It counts as in vivo, rat. The protocol: as §1, §2, §3, §4
The next experiment relates to SH-SY5Y cells. Briefly: cAMP accumulation assay in morphine-treated SH-SY5Y cells. It is filed as cell-based, human. Conditions: for cAMP levels: 24 h, SH-SY5Y cells, control not treated with morphine = 100%. How it is done: Culture of SH-SY5Y Cells. SH-SY5Y cells, a well-established stable human neuroblastoma cell line, were purchased from American Type Culture Collection (ATCC, Manassas, Va.) and grown in Dulbecco's modified Eagle's medium (DMEM) with 10% fetal bovine serum, […] penicillin, and 100 μg/ml streptomycin at 37° C. in a 5% CO2 humidified incubator (Fisher). Before experiments, SH-SY5Y cells were treated with 10 μM retinoic acid (RA) for 6 days to induce neuronal differentiation. These differentiated SH-SY5Y cells were then treated with morphine (10 μM) for 24 h unless otherwise specified.
cAMP Accumulation Assay. Levels of cAMP, which is involved in a cellular mechanism of opioid tolerance development, were determined in morphine-treated SH-SY5Y cells. Thirty-six hours after co-culturing with hMSCs or HDFs, SH-SY5Y cells were harvested with a non-enzymatic cell dissociation solution and washed once with HBSS buffer. cAMP accumulation in SH-SY5Y cells was assayed using a LANCE™ cAMP kit (PerkinElmer, Waltham, Mass.) according to the manufacturer's protocol. SH-SY5Y cells were centrifuged at 1000 g for 2 min, resuspended at a concentration of 2×10^6 cells/ml in stimulation buffer (1×HBSS, 5 mM HEPES, 0.1% BSA, 0.5 mM IBMX, pH 7.4) and mixed with 50 μM forskolin. Alexa pluor® 647 labeled antibody was added to the cell suspension and the cells were incubated at 37° C. for additional 15 min, and detection mix was then added to the final cell suspension. The cell sample was further incubated for 1 h in the dark and read on a TECAN instrument (San Jose, Calif.) to measure the LANCE signal. The LANCE signal obtained at […] was directly used to analyze the cAMP levels. The signal at […] was used to identify dispensing or quenching problems. The cAMP standard curve was assayed according to the manufacturer's instructions. The cAMP formation was calculated as the percentage of forskolin-stimulated cAMP accumulation without morphine, which was defined as 100%. All data were expressed as mean±SD. Statistical comparisons were analyzed using Prism software. […]
(In general: cAMP levels reflect the balance of adenylyl cyclase and phosphodiesterase activity.)

Turning to `CN1CC[C@]23c4c5ccc(O)c4O[C@H]2[C@@H](O)C=C[C@H]3[C@H]1C5` [morphine], the “withdrawal thresholds to thermal stimulation vs pre-morphine values at day 11” value with Sprague-Dawley rats [1] is recorded as “significantly reduced”. Besides, the “withdrawal thresholds to mechanical stimulation (morphine tolerance)” value with Sprague-Dawley rats [2] (control (PBS) group, daily s.c. morphine 7.5 mg/kg, within five days) is “gradually and significantly reduced”. In addition, the “mean mechanical withdrawal thresholds vs pre-morphine value at day 11” value with Sprague-Dawley rats [2] (control group, Day 15, 4 days after start of daily morphine injections, t=15.639, p<0.001) is “dramatically decreased”. Also, the cAMP levels in the experiment on SH-SY5Y cells (1 μM morphine) is on record as 150.7±20.6 % of control; with SH-SY5Y cells (10 μM morphine), 241.6±19.6 % of control. Also, in the experiment with SH-SY5Y cells (10 μM morphine, at 24 and 48 h vs 0 h, p<0.001 (FIG. 2)), the “cAMP levels over time” value is on record as “significant increase of cAMP”.
